The values that follow come from US20080057003A1, “Powder inhaler formulations” (priority 2001, published 2008).

This data set is described as follows: Triboelectrification in a cyclone separator (specific charge, mass transport, adhesion). To be noted: for specific charge: untreated micronized drug, stainless steel cyclone, FIG. 1 / FIG. 3. It counts as physicochemical. The source says:
In the processing of micronized or microfine active substances for DPI, it is common to subject the powder to a sieving process in order to remove large agglomerates prior to mixing with the carrier particles used in the DPI formulation. […] The experimental method for electrostatic charge determinations that was applied is outlined in more detail below.
Electrostatic charge of powder samples was investigated using a cyclone apparatus linked to a Faraday well and force compensation load cell to measure charge and mass simultaneously. 1 g samples of powder were transported through the apparatus using dry compressed air (rh<10%) at 8 m s^−1 for triboelectrification against a stainless steel surface.
The charge Q (nC) and mass M (g) values were used to calculate the specific charge Q/M (nC g^−1) at the completion of each experimental run. The results are mean values with coefficient of variation values for 5 replicates. The mass of material entering the Faraday well was used to quantify the mass transport through the apparatus and this was used to assess the flow and adhesion characteristics of the powder. In addition, the amount of material adhered to the cyclone wall was estimated visually and rated on a scale from 0 (no adhesion) to 3 (extensive adhesion).
Approximately 10 g of drug powder samples were placed in a 60M (250 μm) sieve and agitated using a sieve shaker (Glen Creston, 47-300) with an oscillation amplitude regulator at setting 20 for 20 minutes. Sieved powder samples were stored in glass jars and then kept in a desiccator for a week prior to charge investigations in the cyclone.

Setting [1] is: sieved samples, tiotropium treated with sorbitan derivative at 600 mg l^−1, or untreated, cyclone.

In the case of `C[N+]1(C)[C@@H]2C[C@@H](OC(=O)C(O)(c3cccs3)c3cccs3)C[C@H]1[C@@H]1O[C@@H]12` [tiotropium, Tiotropium], the “Mean charge (cv %)” value under setting [1] is reported as “+201 (3.2) nC g^−1”. Also, the “Mean mass transfer (cv %)” value under setting [1] is 2.5 (8.0) %. Further, the specific charge result by setting is: (sieved) “+201 nC g^−1”; (unsieved) “+52 nC g^−1”.

In the case of `CC(Cc1ccc(O)cc1)NCC(O)c1cc(O)cc(O)c1` (stereo not drawn) [fenoterol, Fenoterol], the specific charge reads like this: (sieved) −92 nC g^−1; (unsieved) −40 nC g^−1.
